# Measured values as given in patent publication US20240301408A1, “MICRORNA 195 COMPOSITIONS AND METHODS FOR TREATING COGNITIVE IMPAIRMENT” (UNITED STATES GOVERNMENT AS REPRESENTED BY THE DEPARTMENT …, priority 2021, published 2024).
# How the values were obtained:
# [1] = test system: lysosomes of synj1+/+ and synj1-/- neurons; assay: lysosome size in mouse synj1+/+ and synj1-/- neurons co-cultured with ApoE4+/+ iPSC-derived astrocytes; type: cell-based
# Experimental: (§1) Mouse Neuronal and human iPSC culture. Primary cortical neurons were cultured (Zhu L et al., Proc Natl Acad Sci USA 2015, and Zhu L et al., J Biol Chem 2013) before being fixed and stained for confocal microscopy analysis (Zeiss LSM) (Berg I et al., Nat Protoc 2010). In some conditions, bovine serum albumin (BSA) or receptor-associated protein (RAP) was included in the cultured media (N=3/group). Alternatively, cultured neurons were transfected with adeno-associated virus 2 (AAV2)-containing miR-195-5p or miR-374 or scramble controls for 5 days before subjected to analysis. The ApoE4^+/+ and ApoE3^+/+ iPSCs were differentiated into neural progenitor cells (NPCs) by dual SMAD inhibition followed by neural rosette selection and forebrain-specific patterning by 20 ng/ml FGF2 exposure (Bowles K R et al., PloS one 2019, and Tcw J et al., Stem cell reports 2017). These NPCs were purified by MACS for CD271^−/CD133^+ (Bowles K R et al., PloS one 2019) and differentiated to cortical neurons (Bardy C et al., Proc Natl Acad Sci USA 2015, and Paquet D et al., Nature 2016) and a homogeneous population of astrocytes (Tcw J et al., Stem cell reports 2017, and Shaltouki A et al., Stem Cells 2013) before subjected to viral transfection and confocal microscopy analysis. […]
# [2] = test system: endogenous mouse Aβ40 or Aβ42; assay: endogenous brain Aβ40 / Aβ42 levels in ApoE KI mice after miR-195 over-expression; type: in vivo; details: ApoE4+/+ or ApoE3+/+ mouse brains
# Experimental: (§2) Stereotaxic injection and behavior studies. Eight to nine weeks old male and female ApoE3^+/+ and ApoE4^+/+ KI mice without 5×FAD background (N=19-23/group), or with 5×FAD background (N=15-17/group) were placed in the stereotaxic apparatus with AAV2 or scramble virus administered into the dorsal CA1 regions of bilateral hippocampal brain regions using pressure injection (Labonte B et al., Nat Med 2017, and Passini M A et al., The Journal of neuroscience 2006). Injection volumes (0.5-2.0 μl) were delivered over 10 min to avoid tissue damage. […]
# (§3) Brain and neuronal sample preparation and biochemical analysis. […] Levels of Aβ42, Aβ40, pTau, Tau and ApoE were determined using high-sensitive ELISA kits. […]
# (§4) Statistical analysis. […] Levels of miR-195-5p and miR-374 were normalized to U6 and RNU6B (internal controls) while synj1 mRNA normalized to GAPDH and 18s, and then expressed as Log2fold of changes when compared to controls. Levels of synj1, dyn1, pTau, Tau, and holoAPP were normalized to β-actin levels and expressed as a percentage of the control. Absolute Aβ42, Aβ40, pTau, Tau, and ApoE concentrations were quantitatively determined by ELISA and expressed as a percentage of the control. […] Pearson correlation coefficients were calculated to determine the linear relationship between the two variables. […]
# [3] = test system: synj1; assay: brain synj1 mRNA and protein levels in ApoE KI mice after miR-195 over-expression; type: in vivo, mouse
# Experimental: Stereotaxic injection and behavior studies. Eight to nine weeks old male and female ApoE3^+/+ and ApoE4^+/+ KI mice without 5×FAD background (N=19-23/group), or with 5×FAD background (N=15-17/group) were placed in the stereotaxic apparatus with AAV2 or scramble virus administered into the dorsal CA1 regions of bilateral hippocampal brain regions using pressure injection (Labonte B et al., Nat Med 2017, and Passini M A et al., The Journal of neuroscience 2006). Injection volumes (0.5-2.0 μl) were delivered over 10 min to avoid tissue damage. Six to nine months after viral delivery, mice were tested with the NOR task (Zhu L et al., Proc Natl Acad Sci USA 2015, Elder G A et al., J Neurotrauma 2012, and Howlett D R et al., Brain Res 2004). Mice were randomized for genotype and sex, and blinded throughout the behavior data collection and analysis, surgical manipulations, and sample collection.
# Brain and neuronal sample preparation and biochemical analysis. Snap-frozen mouse hemi-brains or cultured neurons were harvested in lysis buffer (Lane R F et al., The Journal of neuroscience 2010) and processed via step-wise solubilization (Lane R F et al., The Journal of neuroscience 2010, and Kawarabayashi T et al. The Journal of neuroscience 2001) followed by SDS-PAGE to determine levels of synj1, dyn1, holoAPP, and CTFs. Levels of Aβ42, Aβ40, pTau, Tau and ApoE were determined using high-sensitive ELISA kits. Some tissue was used for miRNA and RNA extraction followed by qPCR and RNA-seq analysis. […]
# as §4
# [4] = test system: BV2 cells; assay: LPS-induced pro-inflammatory cytokine release (IL-6, TNFα) in BV2 microglia with miR-195-5p over-expression; type: cell-based
# Experimental: For example, LPS (at 0.2 μg/ml) treatment for overnight in BV2 cells leads to increased expression of pdcd4 and smad7 (FIG. 13A) and reduced expression of il10ra (FIG. 13C). […] Over-expression of miR-195-5p also attenuates LPS-induced pro-inflammatory cytokine release (IL-6 and TNFα; FIG. 13B). […] For these experiments, purified exosomes were derived from human APOE3/3 and 4/4 iPSC-derived astrocytes w/wo miR-195 over-expression detected by an exosome marker, ALIX. Fluorescence labeled exosomes were taken up by IBA1+ microglia cells.
# Over-expression of miR-195-5p in microglia inhibits LPS-induced proinflammatory responses and augments anti-inflammatory responses. […] However, over-expression of miR-195-5p reduces expression levels of pdcd4 and smad7 and increases il10a expression in the presence of LPS. Over-expression of miR-195-5p also attenuates LPS-induced pro-inflammatory cytokine release (IL-6 and TNFα; FIG. 17B).
# [5] = test system: phospho-Tau (pTau); assay: brain pTau levels in ApoE KI mice after miR-195 over-expression; type: in vivo, mouse
# Experimental: as §2, §3, §4
# [6] = test system: holo-APP or BACE-1; assay: brain holo-APP and BACE-1 levels in EFAD mice after miR-195-5p over-expression; type: in vivo; details: EFAD mouse brains
# Experimental: as §2, §3, §4
# [7] = test system: pTau; assay: pTau levels in iPSC-derived brain cell culture (AT8 staining, ELISA); type: cell-based, human; details: iPSC-derived neuron and astrocyte co-culture
# Experimental: as §1, with “2017).” for “2017). These NPCs were purified by MACS for CD271^−/CD133^+ (Bowles K R et al., PloS one 2019) and differentiated to cortical neurons (Bardy C et al., Proc Natl Acad Sci USA 2015, and Paquet D et al., Nature 2016) and a homogeneous population of astrocytes (Tcw J et al., Stem cell reports 2017, and Shaltouki A et al., Stem Cells 2013) before subjected to viral transfection and confocal microscopy analysis.”
# as §3
sequence,measurement,setting,value
"UAGCAGCACAGAAAUAUUGGC (chemistry not given here) [miR-195-5p, over-expressed via AAV2-containing miR-195-5p from ABM Inc]",size of lysosomes,"[1]; synj1+/+ neurons, control 101.5 μm^2",75.8 μm^2
same,size of lysosomes,"[1]; synj1-/- neurons, control 77.0 μm^2",69.7 μm^2
same,endogenous Aβ40 or Aβ42 levels,[2],No significant changes
same,endogenous Aβ40 or Aβ42 levels,[2]; listed as miR-195,no significant changes
same,synj1 mRNA and protein levels,[3]; ApoE3+/+ mouse brains,Trends of reduction
same,synj1 mRNA,"[3]; ApoE4+/+ mouse brains, scramble controls 0.52",−1.29 Log 2FC
same,synj1 protein,"[3]; ApoE4+/+ mouse brains, scramble controls 77.7",56.4 % of control
same,LPS-induced pro-inflammatory cytokine release (IL-6 and TNFα),[4],attenuates
same,pTau levels,[5]; ApoE3+/+ mice,Trends of reduction
same,brain phospho-Tau (pTau) levels,"[5]; ApoE4+/+ KI mouse hippocampus, scramble controls 81.3",39.1 % of controls
same,holo-APP or BACE-1 levels,[6],no significant changes
same,pTau levels (fluorescent staining and ELISA),[7],reduced
